“Also recorded” adds a separate entry of the source.
Legend:
AR V7 = molecular target: T1, AR V7 (Homo sapiens, UniProt P10275); assay: ARE-luciferase reporter assay in 22Rv1 cells (endogenous AR-V7); type: cell-based; parameters: 22Rv1(Cobioer) prostate cancer cell line, which expresses endogenous AR-V7; host or cells: 22Rv1; conditions: 22Rv1, hormone-starved, 24 h; read-out: 22Rv1 ARE-luc IC50
T1 sequence (P10275 1-644 isoform P10275-3): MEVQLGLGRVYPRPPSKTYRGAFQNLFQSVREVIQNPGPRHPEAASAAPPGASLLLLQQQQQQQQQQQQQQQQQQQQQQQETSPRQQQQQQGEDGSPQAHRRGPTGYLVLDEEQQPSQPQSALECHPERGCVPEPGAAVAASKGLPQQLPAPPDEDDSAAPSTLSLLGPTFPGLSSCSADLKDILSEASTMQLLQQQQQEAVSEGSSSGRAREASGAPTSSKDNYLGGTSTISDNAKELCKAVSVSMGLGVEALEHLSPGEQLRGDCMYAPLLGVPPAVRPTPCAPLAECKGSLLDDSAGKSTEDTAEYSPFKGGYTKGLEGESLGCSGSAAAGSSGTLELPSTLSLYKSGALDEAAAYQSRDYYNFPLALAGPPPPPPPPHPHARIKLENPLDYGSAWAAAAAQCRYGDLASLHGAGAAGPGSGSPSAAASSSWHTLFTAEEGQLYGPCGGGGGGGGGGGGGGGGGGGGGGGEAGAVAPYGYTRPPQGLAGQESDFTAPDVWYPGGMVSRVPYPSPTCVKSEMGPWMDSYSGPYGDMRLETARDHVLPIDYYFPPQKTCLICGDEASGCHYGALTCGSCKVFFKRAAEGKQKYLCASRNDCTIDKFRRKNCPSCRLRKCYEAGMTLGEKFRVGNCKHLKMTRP
Procedure: The ARE-luciferase reporter plasmid contains functional AREs (androgen response elements) to which AR binds in response to androgen to induce luciferase activity. LNCaP (Cobioer) cells were transiently transfected with the ARE-luciferase reporter in charcoal stripped FBS/phenol red-free RPMI medium prior to treatment for 24 hours. Then DMSO or test compounds with serial diluted concentrations were added one hour prior to the addition of DHT(1 nM). After 24 h of incubation with DHT, cells were lysed and luciferase activity was assayed using the ONE-Glo™ Luciferase Assay System (Promega) and measured using EnVision Multimode Plate Reader, according to manufacturer's instructions. Values were normalized to cell viability determined by CellTiter-Glo® Luminescent Cell Viability Assay Kit (Promega). […] GraphPad Prism graphing software was used to calculate IC50 values.
To evaluate the transcriptional activity of AR-V7, HEK293T(Cobioer) cells were transiently cotransfected with an expression vector for AR-V7 and the ARE-luciferase reporter in hormone-starved conditions. For 22Rv1(Cobioer) prostate cancer cell line, which expresses endogenous AR-V7, ARE-luciferase reporter was transiently transfected in hormone-starved conditions. 24 h after transfection, DMSO or test compounds with serial diluted concentrations were added for additional 24 h incubation. Reporter activity was detected and normalized by cell viability as described above. Treatments were normalized to DMSO control activity, and IC50 values were further determined via GraphPad Prism graphing software.

AR F877L/T878A = molecular target: T2, AR F877L/T878A (Homo sapiens, UniProt P10275, F877L/T878A); assay: Live-cell imaging of AR puncta (LLPS) in LNCaP cells, AR F877L/T878A-mEGFP; type: cell-based; conditions: 10 μM compound, 1 nM DHT
T2 construct: expressed in transfected cells; host or cells: LNCaP
T2 sequence (P10275 1-920 F877L/T878A): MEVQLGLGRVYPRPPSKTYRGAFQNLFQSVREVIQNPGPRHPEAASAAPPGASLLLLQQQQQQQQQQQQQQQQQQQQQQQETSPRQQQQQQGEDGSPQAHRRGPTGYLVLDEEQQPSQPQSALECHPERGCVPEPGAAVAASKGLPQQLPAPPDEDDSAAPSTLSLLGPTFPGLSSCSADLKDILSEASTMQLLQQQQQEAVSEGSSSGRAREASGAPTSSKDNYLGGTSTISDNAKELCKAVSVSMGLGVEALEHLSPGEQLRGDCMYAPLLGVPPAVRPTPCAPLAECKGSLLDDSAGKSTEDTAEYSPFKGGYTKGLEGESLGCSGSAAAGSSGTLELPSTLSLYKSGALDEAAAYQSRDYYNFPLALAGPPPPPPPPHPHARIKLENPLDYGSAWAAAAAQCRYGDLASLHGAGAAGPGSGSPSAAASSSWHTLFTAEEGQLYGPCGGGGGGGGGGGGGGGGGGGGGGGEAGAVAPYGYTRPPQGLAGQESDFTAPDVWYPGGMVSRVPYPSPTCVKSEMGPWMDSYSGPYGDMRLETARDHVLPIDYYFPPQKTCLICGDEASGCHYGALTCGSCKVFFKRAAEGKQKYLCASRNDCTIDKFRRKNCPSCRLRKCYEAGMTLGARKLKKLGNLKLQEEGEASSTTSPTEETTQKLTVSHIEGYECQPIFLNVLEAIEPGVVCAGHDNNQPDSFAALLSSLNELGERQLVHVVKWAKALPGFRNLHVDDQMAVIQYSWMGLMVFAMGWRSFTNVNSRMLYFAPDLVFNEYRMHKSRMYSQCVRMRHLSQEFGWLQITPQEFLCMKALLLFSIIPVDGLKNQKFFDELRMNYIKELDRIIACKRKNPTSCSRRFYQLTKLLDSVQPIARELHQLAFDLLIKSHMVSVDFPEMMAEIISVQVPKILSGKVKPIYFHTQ
Procedure: Cells were grown on 24-well glass bottom plate (Cellvis, P24-1.5H-N) and images were taken with the Leica TCS SP8 confocal microscopy system using a 100× oil objective (NA=1.4). Cells were imaged on a heated stage (37° C.) and supplemented with warmed (37° C.) humidified air. The microscope was enclosed in an incubation chamber heated to 37° C.
For compounds treatment assay, LNCaP cells were transfected with an expression vector for AR (AR or AR F877L/T878A)-mEGFP using steroid hormone-free and phenol red-free RPMI media for 24 hours before compound treatment. After 10 μM compounds treatment for 3 hour, LNCaP cells were added with 1 nM DHT. For ligand-independent AR V7-mEGFP expressing LNCaP cells, starvation step is skipped and compounds were added 12 hours after transfection. The final concentration of DMSO was 0.1%. Cells were subjected to microscopic observation every 30 mins after DHT/compounds were added.
Data was analyzed by images collected from 100 representative fields in each group. The spots quantification was performed based on the area and intensity of the spots through green (AR-mEGFP) channel. Fluorescent images were processed and assembled into figures using LAS X (Leica) and Fiji.
After 10 μM compounds treatment for 3 hour, LNCaP cells were added with 1 nM DHT. […]

Compound	IC50 (AR V7) [µM]	puncta formation / LLPS of enzalutamide-resistant AR mutant F877L/T878A (AR F877L/T878A)
CC(C)(c1ccc(OCc2ccnc(N=S3(=O)CCNCC3)n2)cc1)c1cc(Cl)c(OCCCl)c(C#N)c1 [Compound 6, 3-chloro-2-(2-chloroethoxy)-5-(2-(4-((2-((1-oxido-1λ^6-thiomorpholin-1-ylidene)amino)pyrimidin-4-yl)methoxy)phenyl)propan-2-yl)benzonitrile]	8.6	
CC(C)(c1ccc(C#Cc2cnc(NS(C)(=O)=O)nc2)cc1)c1cc(Cl)c(OCCCl)c(C#N)c1 [Compound 60, N-(5-((4-(2-(3-chloro-4-(2-chloroethoxy)-5-cyanophenyl)propan-2-yl)phenyl)ethynyl)pyrimidin-2-yl)methanesulfonamide]		could suppress the phase separation; also recorded: abolished the puncta formation; also recorded: impaired the LLPS
CC(C)(c1ccc(OCc2ccnc(NS(C)(=O)=O)n2)cc1)c1cc(Cl)c(OCCCl)c(C#N)c1 [Compound AA, N-(4-((4-(2-(3-chloro-4-(2-chloroethoxy)-5-cyanophenyl)propan-2-yl)phenoxy)methyl)pyrimidin-2-yl) methane sulfonamide, reference compound]	> 20	
